Measured values from paper PMC9856672, “SGC-CAMKK2-1: A Chemical Probe for CAMKK2” (Cells, 2023).

What was measured:
YES [1] = target: T1, YES (Homo sapiens, UniProt P07947); experiment: KINOMEscan at 1 μM, YES; format: binding; settings: 1000 nM, read-out: Percent Control
T1 construct: purchased Eurofins DiscoverX KINOMEscan
From the text: (§1) Supplement cells-12-00287-s001.zip/File S2. KinomeScan data for the CAMKK2 probe and negative control.xlsx, sheet "SGC-CAMKK2-1N" | column: Percent Control

FYN = target: T2, FYN (Homo sapiens, UniProt P06241); experiment: KINOMEscan at 1 μM, FYN; format: binding; settings: 1000 nM, read-out: Percent Control
T2 construct: purchased Eurofins DiscoverX KINOMEscan
From the text: as §1

[2] = target: T3, ABL1(M351T)-phosphorylated (Homo sapiens, UniProt P00519, M351T); experiment: KINOMEscan at 1 μM, ABL1(M351T)-phosphorylated; format: binding; settings: 1000 nM, read-out: Percent Control
T3 construct: purchased Eurofins DiscoverX KINOMEscan
From the text: as §1

ZAP70 = target: T4, ZAP70 (Homo sapiens, UniProt P43403); experiment: KINOMEscan at 1 μM, ZAP70; format: binding; settings: 1000 nM, read-out: Percent Control
T4 construct: purchased Eurofins DiscoverX KINOMEscan
From the text: as §1

PIK3CA(Q546K) = target: T5, PIK3CA(Q546K) (Homo sapiens, UniProt P42336, Q546K); experiment: KINOMEscan at 1 μM, PIK3CA(Q546K); format: binding; settings: 1000 nM, read-out: Percent Control
T5 construct: purchased Eurofins DiscoverX KINOMEscan
From the text: as §1

MEK6 = target: T6, MEK6 (Homo sapiens, UniProt P52564); experiment: KINOMEscan at 1 μM, MEK6; format: binding; settings: 1000 nM, read-out: Percent Control
T6 construct: purchased Eurofins DiscoverX KINOMEscan
From the text: as §1

PIK3CA(H1047Y) = target: T7, PIK3CA(H1047Y) (Homo sapiens, UniProt P42336, H1047Y); experiment: KINOMEscan at 1 μM, PIK3CA(H1047Y); format: binding; settings: 1000 nM, read-out: Percent Control
T7 construct: purchased Eurofins DiscoverX KINOMEscan
From the text: as §1

AXL = target: T8, AXL (Homo sapiens, UniProt P30530); experiment: KINOMEscan at 1 μM, AXL; format: binding; settings: 1000 nM, read-out: Percent Control
T8 construct: purchased Eurofins DiscoverX KINOMEscan
From the text: as §1

DLK = target: T9, DLK (Homo sapiens, UniProt Q12852); experiment: KINOMEscan at 1 μM, DLK; format: binding; settings: 1000 nM, read-out: Percent Control
T9 construct: purchased Eurofins DiscoverX KINOMEscan
From the text: as §1

BRK = target: T10, BRK (Homo sapiens, UniProt Q13882); experiment: KINOMEscan at 1 μM, BRK; format: binding; settings: 1000 nM, read-out: Percent Control
T10 construct: purchased Eurofins DiscoverX KINOMEscan
T10 sequence (Q13882 whole entry): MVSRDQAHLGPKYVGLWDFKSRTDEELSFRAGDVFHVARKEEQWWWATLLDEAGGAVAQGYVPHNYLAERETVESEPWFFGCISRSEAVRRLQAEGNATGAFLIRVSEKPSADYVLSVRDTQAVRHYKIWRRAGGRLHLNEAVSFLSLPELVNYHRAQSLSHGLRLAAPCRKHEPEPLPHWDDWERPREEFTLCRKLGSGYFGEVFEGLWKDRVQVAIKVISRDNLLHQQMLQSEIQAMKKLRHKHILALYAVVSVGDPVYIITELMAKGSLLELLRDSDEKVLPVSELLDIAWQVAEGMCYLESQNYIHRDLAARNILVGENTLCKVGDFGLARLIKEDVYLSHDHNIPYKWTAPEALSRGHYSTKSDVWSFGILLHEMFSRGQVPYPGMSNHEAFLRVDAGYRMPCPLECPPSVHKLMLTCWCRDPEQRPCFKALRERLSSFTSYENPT
From the text: as §1

MLK3 = target: T11, MLK3 (Homo sapiens, UniProt Q16584); experiment: KINOMEscan binding assay at 1 μM, MLK3; settings: Compound Concentration 1000 nM; read-out: Percent Control
T11 construct: purchased Eurofins DiscoverX KINOMEscan
From the text: as §1

DMPK = target: T12, DMPK (Homo sapiens, UniProt Q09013); experiment: KINOMEscan at 1 μM, DMPK; format: binding; settings: 1000 nM, read-out: Percent Control
T12 construct: purchased Eurofins DiscoverX KINOMEscan
From the text: as §1

FGR = target: T13, FGR (Homo sapiens, UniProt P09769); experiment: KINOMEscan at 1 μM, FGR; format: binding; settings: 1000 nM, read-out: Percent Control
T13 construct: purchased Eurofins DiscoverX KINOMEscan
From the text: as §1

HPK1 [3] = target: T14, HPK1 (Homo sapiens, UniProt Q92918); experiment: KINOMEscan binding assay at 1 μM, HPK1; settings: Compound Concentration 1000 nM; read-out: Percent Control
T14 construct: purchased Eurofins DiscoverX KINOMEscan
T14 sequence (Q92918 whole entry): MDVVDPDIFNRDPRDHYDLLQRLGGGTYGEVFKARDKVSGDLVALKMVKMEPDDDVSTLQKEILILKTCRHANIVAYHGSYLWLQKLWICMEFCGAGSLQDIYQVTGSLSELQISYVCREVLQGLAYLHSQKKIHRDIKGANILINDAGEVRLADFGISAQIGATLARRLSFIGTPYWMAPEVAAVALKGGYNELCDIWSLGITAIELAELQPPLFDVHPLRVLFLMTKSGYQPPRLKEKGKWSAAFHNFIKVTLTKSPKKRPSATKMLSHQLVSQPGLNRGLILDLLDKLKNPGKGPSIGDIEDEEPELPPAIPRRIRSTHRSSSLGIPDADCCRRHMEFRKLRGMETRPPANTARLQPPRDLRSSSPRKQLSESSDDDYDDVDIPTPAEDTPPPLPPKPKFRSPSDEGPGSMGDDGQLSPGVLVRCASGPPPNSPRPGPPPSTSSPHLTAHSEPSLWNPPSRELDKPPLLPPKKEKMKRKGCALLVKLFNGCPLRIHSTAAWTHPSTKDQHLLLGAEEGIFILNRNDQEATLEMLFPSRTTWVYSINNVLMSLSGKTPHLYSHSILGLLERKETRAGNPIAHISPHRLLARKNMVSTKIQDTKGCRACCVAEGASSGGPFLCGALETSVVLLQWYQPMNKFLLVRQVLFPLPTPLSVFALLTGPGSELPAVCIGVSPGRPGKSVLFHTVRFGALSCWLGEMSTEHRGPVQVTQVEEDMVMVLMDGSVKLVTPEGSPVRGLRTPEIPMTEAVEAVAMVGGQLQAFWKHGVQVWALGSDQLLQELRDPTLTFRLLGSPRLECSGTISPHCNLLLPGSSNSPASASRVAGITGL
From the text: as §1

MKNK1 = target: T15, MKNK1 (Homo sapiens, UniProt Q9BUB5); experiment: KINOMEscan 1 μM, MKNK1; format: binding; settings: 1000 nM; Entrez MKNK1; read-out: Percent Control
T15 construct: purchased Eurofins DiscoverX KINOMEscan
From the text: (§2) Supplement cells-12-00287-s001.zip/File S2. KinomeScan data for the CAMKK2 probe and negative control.xlsx, sheet "SGC-CAMKK2-1" | column: Percent Control

YES [4] = target: T1, YES; experiment: DiscoverX KINOMEscan binding assay at 1 μM, YES; settings: YES (YES1); Compound Concentration 1000 nM; read-out: Percent Control
From the text: as §2

EGFR(G719C) = target: T16, EGFR(G719C) (Homo sapiens, UniProt P00533, G719C); experiment: KINOMEscan 1 μM, EGFR(G719C); format: binding; settings: 1000 nM; Entrez EGFR; read-out: Percent Control
T16 construct: purchased Eurofins DiscoverX KINOMEscan
From the text: as §2

MYLK2 = target: T17, MYLK2 (Homo sapiens, UniProt Q9H1R3); experiment: KINOMEscan 1 μM, MYLK2; format: binding; settings: 1000 nM; Entrez MYLK2; read-out: Percent Control
T17 construct: purchased Eurofins DiscoverX KINOMEscan
T17 sequence (Q9H1R3 whole entry): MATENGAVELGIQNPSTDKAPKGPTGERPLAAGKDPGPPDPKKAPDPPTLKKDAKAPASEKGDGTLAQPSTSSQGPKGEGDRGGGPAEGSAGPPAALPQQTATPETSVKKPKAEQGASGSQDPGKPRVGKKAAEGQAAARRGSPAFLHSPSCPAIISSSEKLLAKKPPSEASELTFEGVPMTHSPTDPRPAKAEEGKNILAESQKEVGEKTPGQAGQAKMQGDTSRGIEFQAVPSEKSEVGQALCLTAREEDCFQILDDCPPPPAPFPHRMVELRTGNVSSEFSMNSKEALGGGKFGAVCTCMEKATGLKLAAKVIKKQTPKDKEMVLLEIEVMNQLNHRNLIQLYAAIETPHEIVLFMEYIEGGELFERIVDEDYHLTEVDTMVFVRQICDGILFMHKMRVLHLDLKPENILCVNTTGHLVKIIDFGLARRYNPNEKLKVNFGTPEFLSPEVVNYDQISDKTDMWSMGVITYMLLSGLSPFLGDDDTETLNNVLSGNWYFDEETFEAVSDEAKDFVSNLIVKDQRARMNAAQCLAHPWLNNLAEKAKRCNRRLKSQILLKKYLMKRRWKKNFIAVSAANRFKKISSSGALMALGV
From the text: as §2

TESK1 = target: T18, TESK1 (Homo sapiens, UniProt Q15569); experiment: DiscoverX KINOMEscan binding assay at 1 μM, TESK1; settings: Compound Concentration 1000 nM, read-out: Percent Control
T18 construct: purchased Eurofins DiscoverX KINOMEscan
From the text: as §2

ZAK = target: T19, ZAK (Homo sapiens, UniProt Q9NYL2); experiment: DiscoverX KINOMEscan binding assay at 1 μM, ZAK; settings: Compound Concentration 1000 nM, read-out: Percent Control
T19 construct: purchased Eurofins DiscoverX KINOMEscan
From the text: as §2

FLT3-autoinhibited = target: T20, FLT3-autoinhibited (Homo sapiens, UniProt P36888); experiment: KINOMEscan 1 μM, FLT3-autoinhibited; format: binding; settings: 1000 nM; Entrez FLT3; read-out: Percent Control
T20 construct: purchased Eurofins DiscoverX KINOMEscan
From the text: as §2

EGFR(L861Q) = target: T21, EGFR(L861Q) (Homo sapiens, UniProt P00533, L861Q); experiment: KINOMEscan 1 μM, EGFR(L861Q); format: binding; settings: 1000 nM; Entrez EGFR; read-out: Percent Control
T21 construct: purchased Eurofins DiscoverX KINOMEscan
T21 sequence (P00533 25-1210 L861Q): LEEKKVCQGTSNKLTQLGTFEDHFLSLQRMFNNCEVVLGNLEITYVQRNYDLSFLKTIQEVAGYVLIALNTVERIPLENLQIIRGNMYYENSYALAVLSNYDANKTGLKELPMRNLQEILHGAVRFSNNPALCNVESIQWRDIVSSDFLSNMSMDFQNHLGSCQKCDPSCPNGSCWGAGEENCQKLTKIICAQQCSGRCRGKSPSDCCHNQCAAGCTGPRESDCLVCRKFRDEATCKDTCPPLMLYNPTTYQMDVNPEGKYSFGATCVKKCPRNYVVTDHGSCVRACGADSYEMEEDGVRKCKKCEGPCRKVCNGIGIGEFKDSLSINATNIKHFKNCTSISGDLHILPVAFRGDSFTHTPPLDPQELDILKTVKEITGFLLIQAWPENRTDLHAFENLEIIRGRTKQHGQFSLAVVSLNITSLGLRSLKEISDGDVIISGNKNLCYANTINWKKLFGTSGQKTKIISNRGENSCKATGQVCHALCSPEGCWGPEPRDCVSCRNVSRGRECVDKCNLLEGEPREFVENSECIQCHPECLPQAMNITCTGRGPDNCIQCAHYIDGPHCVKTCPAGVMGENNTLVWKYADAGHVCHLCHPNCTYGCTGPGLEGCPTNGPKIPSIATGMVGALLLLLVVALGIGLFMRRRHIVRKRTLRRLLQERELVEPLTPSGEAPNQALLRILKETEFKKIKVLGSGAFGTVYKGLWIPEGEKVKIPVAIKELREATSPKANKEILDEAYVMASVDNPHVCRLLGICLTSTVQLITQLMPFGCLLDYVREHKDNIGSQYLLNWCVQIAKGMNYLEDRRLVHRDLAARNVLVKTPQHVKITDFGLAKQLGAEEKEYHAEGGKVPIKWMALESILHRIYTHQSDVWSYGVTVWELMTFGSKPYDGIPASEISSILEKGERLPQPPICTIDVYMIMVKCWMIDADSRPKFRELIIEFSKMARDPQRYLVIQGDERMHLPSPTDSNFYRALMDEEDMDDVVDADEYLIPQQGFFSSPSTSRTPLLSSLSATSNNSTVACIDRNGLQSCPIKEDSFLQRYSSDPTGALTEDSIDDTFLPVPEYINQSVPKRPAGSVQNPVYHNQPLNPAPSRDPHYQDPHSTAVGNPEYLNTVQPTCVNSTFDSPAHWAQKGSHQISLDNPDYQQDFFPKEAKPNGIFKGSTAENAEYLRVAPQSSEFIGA
From the text: as §2

[5] = target: T22, ABL1(T315I)-phosphorylated (Homo sapiens, UniProt P00519, T315I); experiment: KINOMEscan 1 μM, ABL1(T315I)-phosphorylated; format: binding; settings: 1000 nM; Entrez ABL1; read-out: Percent Control
T22 construct: purchased Eurofins DiscoverX KINOMEscan
From the text: as §2

HPK1 [6] = target: T14, HPK1; experiment: KINOMEscan 1 μM, HPK1; format: binding; settings: 1000 nM; Entrez MAP4K1; read-out: Percent Control
From the text: as §2

[7] = target: T23, ABL1(F317I)-phosphorylated (Homo sapiens, UniProt P00519, F317I); experiment: KINOMEscan 1 μM, ABL1(F317I)-phosphorylated; format: binding; settings: 1000 nM; Entrez ABL1; read-out: Percent Control
T23 construct: purchased Eurofins DiscoverX KINOMEscan
From the text: as §2

[8] = target: T24, RPS6KA5(Kin.Dom.2-C-terminal) (Homo sapiens, UniProt O75582); experiment: DiscoverX KINOMEscan binding assay at 1 μM, RPS6KA5(Kin.Dom.2-C-terminal); settings: Compound Concentration 1000 nM, read-out: Percent Control
T24 construct: RPS6KA5(Kin.Dom.2-C-terminal); purchased Eurofins DiscoverX KINOMEscan
From the text: as §2

NEK6 = target: T25, NEK6 (Homo sapiens, UniProt Q9HC98); experiment: KINOMEscan 1 μM, NEK6; format: binding; settings: 1000 nM; Entrez NEK6; read-out: Percent Control
T25 construct: purchased Eurofins DiscoverX KINOMEscan
From the text: as §2

PIK3CA(M1043I) = target: T26, PIK3CA(M1043I) (Homo sapiens, UniProt P42336, M1043I); experiment: DiscoverX KINOMEscan binding assay at 1 μM, PIK3CA(M1043I); settings: Compound Concentration 1000 nM, read-out: Percent Control
T26 construct: purchased Eurofins DiscoverX KINOMEscan
From the text: as §2

MST1R = target: T27, MST1R (Homo sapiens, UniProt Q04912); experiment: KINOMEscan 1 μM, MST1R; format: binding; settings: 1000 nM; Entrez MST1R; read-out: Percent Control
T27 construct: purchased Eurofins DiscoverX KINOMEscan
T27 sequence (Q04912 25-1400): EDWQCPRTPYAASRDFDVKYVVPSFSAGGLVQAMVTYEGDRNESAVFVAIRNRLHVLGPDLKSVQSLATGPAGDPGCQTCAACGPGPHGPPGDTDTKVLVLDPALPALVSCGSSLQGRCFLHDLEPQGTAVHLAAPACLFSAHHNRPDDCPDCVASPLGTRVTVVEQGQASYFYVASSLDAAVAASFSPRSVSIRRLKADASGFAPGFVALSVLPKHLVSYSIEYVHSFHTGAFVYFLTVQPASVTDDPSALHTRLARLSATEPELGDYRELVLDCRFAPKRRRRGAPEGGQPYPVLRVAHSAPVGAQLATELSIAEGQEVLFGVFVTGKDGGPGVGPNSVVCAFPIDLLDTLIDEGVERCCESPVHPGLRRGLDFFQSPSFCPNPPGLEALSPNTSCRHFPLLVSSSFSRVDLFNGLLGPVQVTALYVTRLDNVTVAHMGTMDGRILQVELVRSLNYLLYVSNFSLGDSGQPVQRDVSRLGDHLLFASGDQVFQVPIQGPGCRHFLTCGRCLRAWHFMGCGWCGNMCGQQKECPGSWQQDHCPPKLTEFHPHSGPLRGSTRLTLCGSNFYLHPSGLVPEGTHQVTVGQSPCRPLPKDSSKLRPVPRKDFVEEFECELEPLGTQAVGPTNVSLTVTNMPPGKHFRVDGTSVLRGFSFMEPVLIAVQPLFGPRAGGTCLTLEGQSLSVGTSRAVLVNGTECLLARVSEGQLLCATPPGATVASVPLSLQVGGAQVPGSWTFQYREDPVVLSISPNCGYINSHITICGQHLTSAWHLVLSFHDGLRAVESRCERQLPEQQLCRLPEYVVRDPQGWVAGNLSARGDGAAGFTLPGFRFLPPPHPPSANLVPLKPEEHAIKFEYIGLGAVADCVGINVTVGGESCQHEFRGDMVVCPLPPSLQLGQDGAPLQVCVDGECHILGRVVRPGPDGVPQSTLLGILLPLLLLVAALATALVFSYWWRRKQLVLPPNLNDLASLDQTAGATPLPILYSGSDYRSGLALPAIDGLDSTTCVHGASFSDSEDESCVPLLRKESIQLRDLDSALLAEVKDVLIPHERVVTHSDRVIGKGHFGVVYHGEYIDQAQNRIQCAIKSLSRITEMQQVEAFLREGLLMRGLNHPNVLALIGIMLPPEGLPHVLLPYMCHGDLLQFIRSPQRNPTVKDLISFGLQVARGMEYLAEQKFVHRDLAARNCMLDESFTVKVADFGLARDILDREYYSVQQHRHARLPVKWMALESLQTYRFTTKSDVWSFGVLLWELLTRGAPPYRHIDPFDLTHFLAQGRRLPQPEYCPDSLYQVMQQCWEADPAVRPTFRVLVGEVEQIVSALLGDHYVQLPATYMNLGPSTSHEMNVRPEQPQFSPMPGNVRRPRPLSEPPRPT
From the text: as §2

TRKC = target: T28, TRKC (Homo sapiens, UniProt Q16288); experiment: KINOMEscan 1 μM, TRKC; format: binding; settings: 1000 nM; Entrez NTRK3; read-out: Percent Control
T28 construct: purchased Eurofins DiscoverX KINOMEscan
From the text: as §2

PDGFRA = target: T29, PDGFRA (Homo sapiens, UniProt P16234); experiment: DiscoverX KINOMEscan binding assay at 1 μM, PDGFRA; settings: Compound Concentration 1000 nM, read-out: Percent Control
T29 construct: purchased Eurofins DiscoverX KINOMEscan
From the text: as §2

STK33 = target: T30, STK33 (Homo sapiens, UniProt Q9BYT3); experiment: KINOMEscan 1 μM, STK33; format: binding; settings: 1000 nM; Entrez STK33; read-out: Percent Control
T30 construct: purchased Eurofins DiscoverX KINOMEscan
From the text: as §2

[9] = target: T31, ABL1(Y253F)-phosphorylated (Homo sapiens, UniProt P00519, Y253F); experiment: KINOMEscan 1 μM, ABL1(Y253F)-phosphorylated; format: binding; settings: 1000 nM; Entrez ABL1; read-out: Percent Control
T31 construct: purchased Eurofins DiscoverX KINOMEscan
From the text: as §2

CHEK1 = target: T32, CHEK1 (Homo sapiens, UniProt O14757); experiment: KINOMEscan 1 μM, CHEK1; format: binding; settings: 1000 nM; Entrez CHEK1; read-out: Percent Control
T32 construct: purchased Eurofins DiscoverX KINOMEscan
From the text: as §2

T1 sequence (P07947 whole entry): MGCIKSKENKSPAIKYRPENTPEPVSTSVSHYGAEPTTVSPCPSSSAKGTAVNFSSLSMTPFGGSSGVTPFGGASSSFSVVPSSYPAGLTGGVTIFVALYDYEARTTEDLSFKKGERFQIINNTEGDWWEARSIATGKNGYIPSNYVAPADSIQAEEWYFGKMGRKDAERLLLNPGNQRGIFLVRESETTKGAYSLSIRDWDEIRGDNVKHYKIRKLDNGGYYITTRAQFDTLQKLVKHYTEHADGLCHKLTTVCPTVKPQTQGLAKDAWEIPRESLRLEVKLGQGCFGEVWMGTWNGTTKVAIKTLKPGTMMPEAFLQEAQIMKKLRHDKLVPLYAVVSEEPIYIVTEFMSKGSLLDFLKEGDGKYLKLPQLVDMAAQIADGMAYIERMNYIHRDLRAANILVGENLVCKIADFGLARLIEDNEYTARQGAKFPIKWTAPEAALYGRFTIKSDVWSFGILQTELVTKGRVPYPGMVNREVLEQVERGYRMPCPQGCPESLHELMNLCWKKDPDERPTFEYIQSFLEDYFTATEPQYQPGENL

O=C(O)c1ccc(-c2coc3ncc(-c4ccccc4)cc23)cc1Cl [SGC-CAMKK2-1N (UNC-YL-83)]
remaining binding at 1 µM (YES [1]): 87% | remaining binding at 1 µM (FYN): 80% | remaining binding at 1 µM [2]: 68% | remaining binding at 1 µM (ZAP70): 85% | remaining binding at 1 µM (PIK3CA(Q546K)): 73% | remaining binding at 1 µM (MEK6): 46% | remaining binding at 1 µM (PIK3CA(H1047Y)): 59% | remaining binding at 1 µM (AXL): 94% | remaining binding at 1 µM (DLK): 77% | remaining binding at 1 µM (BRK): 96% | remaining binding at 1 µM (MLK3): 100% | remaining binding at 1 µM (DMPK): 72% | remaining binding at 1 µM (FGR): 54% | remaining binding at 1 µM (HPK1 [3]): 100%

Cc1cccc(-c2cnc3occ(-c4ccc(C(=O)O)c(C5CCCC5)c4)c3c2)c1 [SGC-CAMKK2-1 (YL-36)]
remaining binding at 1 µM (MKNK1): 100% | remaining binding at 1 µM (YES [4]): 100% | remaining binding at 1 µM (EGFR(G719C)): 55% | remaining binding at 1 µM (MYLK2): 100% | remaining binding at 1 µM (TESK1): 100% | remaining binding at 1 µM (ZAK): 100% | remaining binding at 1 µM (FLT3-autoinhibited): 100% | remaining binding at 1 µM (EGFR(L861Q)): 47% | remaining binding at 1 µM [5]: 100% | remaining binding at 1 µM (HPK1 [6]): 100% | remaining binding at 1 µM [7]: 100% | remaining binding at 1 µM [8]: 100% | remaining binding at 1 µM (NEK6): 100% | remaining binding at 1 µM (PIK3CA(M1043I)): 100% | remaining binding at 1 µM (MST1R): 86% | remaining binding at 1 µM (TRKC): 81% | remaining binding at 1 µM (PDGFRA): 100% | remaining binding at 1 µM (STK33): 98% | remaining binding at 1 µM [9]: 73% | remaining binding at 1 µM (CHEK1): 93%
